# According to patent US6340594B1, “Production of desiccation-tolerant gymnosperm embryos” (CellFor, Inc., priority 1991, dated 2002):
# Experiments:
# Type in all cases: cell-based
# [1] = system: white spruce somatic embryos; assay: Molecular size threshold of solutes for promoting maturation; details: 20 μM ABA; for Mature embryos per replicate (± SE): solute 7.5% added to 3% sucrose base, 9 weeks; for recovery of mature embryos: solute at 2.5 and 5% (w/v), 3% sucrose base
# Procedure: In order to determine the effective molecular weight and size range of solutes that promote the maturation of immature white spruce somatic embryos, they were matured in half-strength LP maturation medium containing a range of different solutes of differing molecular weight. Five replicates were prepared per treatment, and treatments were repeated twice. […] The treatment time was 9 weeks. […] The somatic embryos remained wet throughout the maturation treatment which led to poorly formed embryos at low frequency. […] For all treatments, only normal looking cotyledonary stage opaque white embryos were scored and used for lipid analyses. Levels of lipid triacylglycerols (TAGs) were analyzed as described later and results provided are means of two replicates.
# [2] = system: white spruce somatic embryos; assay: Somatic embryo maturation with PEG-4000 (maturation frequency); details: preliminary experiments
# Procedure: Maturation of somatic embryos was carried out using methods modified from Attree et al. (1990). Suspension cultured somatic embryos were washed and resuspended (20% w/v) in half-strength PGR-free BM containing 3% sucrose, to remove the previous PGRs, then 0.75 ml aliquots were pipetted onto filter paper supports (Whatman no. 2) on the surface of maturation medium. The supports facilitated subsequent transfers to fresh media. To determine the mean number of somatic embryos plated, 10 μl samples of the 20% suspension were stained with acetocarmine (B.D.H.) and counted (repeated 15 times). The plated somatic embryos were maintained on the maturation medium for 4 weeks in the dark. To test the effect of increased osmoticum, the following concentrations of PEG-4000 (Fluka AG) were included in the maturation medium; 0, 2.5, 5.0, 7.5 and 10% (w/v) (25 replicates per treatment). Maturation frequencies per treatment were calculated as the percent mean number of somatic embryos that matured to normal-looking cotyledonary embryos. Maturation frequency results are shown in FIG. 1 (±confidence limits, P=0.05)
# The application of PEG-4000 in the presence of 16 μM ABA for 28 d promoted the maturation of white spruce somatic embryos (FIG. 1). The mean number of immature somatic embryos plated per replicate was 560, and maturation results are based upon a total of 4087 mature embryos recovered. […]
# [3] = system: white spruce somatic embryos; assay: Lipid (TL, TAG) content and fatty acid composition of somatic embryos; details: 7.5% PEG, 8 weeks; for Fatty acid composition of TAG (%) 18:2^b: FA col 7/9; for Fatty acid composition of TAG (%) ΣC-20, 22^c: FA col 9/9
# Procedure: Experiments were set up to observe the effects of different culture conditions on somatic embryo lipid biosynthesis. […] Sigma, St Louis, USA). […] Somatic embryos were maintained on these media for 4 weeks in the dark prior to lipid analysis. […] The lipid contents of immature somatic embryos from suspension culture were also determined. Investigations were conducted to observe the effects of different ABA concentrations, in the presence of PEG, on lipid biosynthesis. […] Matured somatic embryos were transferred on their filter-paper supports to unsealed petri dishes which were then placed within the 81% r.h. desiccator. Total secondary desiccation treatment time was 2 weeks. […] Results were compared to those of somatic embryos matured under the same conditions but not further desiccated. The whole white spruce seeds, isolated zygotic embryos, somatic embryos from the various treatments, and regenerated plantlets and zygotic seedlings were counted, blotted dry, and fresh weights determined. The samples were then placed in an oven at 80° C. for 24 h and dry weights recorded. Lipids were extracted from fresh tissues by the hexane/isopropane method of Hara and Radin (1978), after first placing the samples in boiling isopropane for 10 min. TAGs were separated from total lipid extracts by thin layer chromatography using […] 60 plates (Mandel Scientific Co., Toronto, Canada). […] TAGs were identified using authentic standards and scraped from the plates using a razor blade. Fatty acid methyl esters ([…] prepared from TAGs and total lipid extracts, as previously described (Pomeroy et al. 1991). […] Each lipid extract sample was divided into 2-3 replicates for analysis, and experiments were repeated three times. Results shown are means of one experiment.
# [4] = ABA 12 μM, desiccated (D) 2 weeks 81% r.h.
# [5] = ABA 16 μM, desiccated (D) 2 weeks 81% r.h.
# [6] = ABA 24 μM, desiccated (D) 2 weeks 81% r.h.
# [7] = ABA 32 μM, desiccated (D) 2 weeks 81% r.h.
structure (smiles),measurement,setting,value
"OC[C@@H](O)[C@@H](O)[C@H](O)[C@H](O)CO [Mannitol, mannitol]",Mature embryos per replicate (± SE),[1],0
same,recovery of mature embryos,[1],did not result in recovery of any mature embryos
"OC[C@H]1O[C@@](CO)(O[C@H]2O[C@H](CO)[C@@H](O)[C@H](O)[C@H]2O)[C@@H](O)[C@@H]1O [Sucrose, sucrose]",Mature embryos per replicate (± SE),[1],0
same,recovery of mature embryos,[1],did not result in recovery of any mature embryos
same,"maturation frequencies, visual comparison",[2]; 6% sucrose,lower maturation frequencies
same,"growth, visual comparison",[2]; 9% sucrose,no growth
"CC1=CC(=O)CC(C)(C)C1(O)/C=C/C(C)=C\C(=O)O (racemic) [ABA, abscisic acid]",TAG % d wt,[3]; [4],26 % d wt
same,TAG μg (embryo)^−1,[3]; [4],186.6 μg (embryo)^−1
same,TAG/TL %,[3]; [4],85%
same,TL % d wt,[3]; [4],31 % d wt
same,TL μg (embryo)^−1,[3]; [4],220 μg (embryo)^−1
same,TAG % d wt,"[3]; ABA 12 μM, hydrated (H)",14 % d wt
same,TAG μg (embryo)^−1,"[3]; ABA 12 μM, hydrated (H)",116 μg (embryo)^−1
same,TAG/TL %,"[3]; ABA 12 μM, hydrated (H)",79%
same,TL % d wt,"[3]; ABA 12 μM, hydrated (H)",18 % d wt
same,TL μg (embryo)^−1,"[3]; ABA 12 μM, hydrated (H)",146 μg (embryo)^−1
same,TAG % d wt,[3]; [5],28 % d wt
same,TAG μg (embryo)^−1,[3]; [5],214 μg (embryo)^−1
same,TAG/TL %,[3]; [5],82%
same,TL % d wt,[3]; [5],35 % d wt
same,TL μg (embryo)^−1,[3]; [5],260 μg (embryo)^−1
same,TAG % d wt,"[3]; ABA 16 μM, hydrated (H)",17 % d wt
same,TAG μg (embryo)^−1,"[3]; ABA 16 μM, hydrated (H)",143 μg (embryo)^−1
same,TAG/TL %,"[3]; ABA 16 μM, hydrated (H)",80%
same,TL % d wt,"[3]; ABA 16 μM, hydrated (H)",22 % d wt
same,TL μg (embryo)^−1,"[3]; ABA 16 μM, hydrated (H)",179 μg (embryo)^−1
same,TAG % d wt,[3]; [6],30 % d wt
same,TAG μg (embryo)^−1,[3]; [6],186.2 μg (embryo)^−1
same,TAG/TL %,[3]; [6],80%
same,TL % d wt,[3]; [6],37 % d wt
same,TL μg (embryo)^−1,[3]; [6],232.5 μg (embryo)^−1
same,TAG % d wt,"[3]; ABA 24 μM, hydrated (H)",20 % d wt
same,TAG μg (embryo)^−1,"[3]; ABA 24 μM, hydrated (H)",131 μg (embryo)^−1
same,TAG/TL %,"[3]; ABA 24 μM, hydrated (H)",77%
same,TL % d wt,"[3]; ABA 24 μM, hydrated (H)",26 % d wt
same,TL μg (embryo)^−1,"[3]; ABA 24 μM, hydrated (H)",170 μg (embryo)^−1
same,TAG % d wt,[3]; [7],20 % d wt
same,TAG μg (embryo)^−1,[3]; [7],170 μg (embryo)^−1
same,TAG/TL %,[3]; [7],64%
same,TL % d wt,[3]; [7],31 % d wt
same,TL μg (embryo)^−1,[3]; [7],264 μg (embryo)^−1
same,TAG % d wt,"[3]; ABA 32 μM, hydrated (H)",17 % d wt
same,TAG μg (embryo)^−1,"[3]; ABA 32 μM, hydrated (H)",130 μg (embryo)^−1
same,TAG/TL %,"[3]; ABA 32 μM, hydrated (H)",67%
same,TL % d wt,"[3]; ABA 32 μM, hydrated (H)",26 % d wt
same,TL μg (embryo)^−1,"[3]; ABA 32 μM, hydrated (H)",193 μg (embryo)^−1
same,Fatty acid composition of TAG (%) 18:2^b,"[3]; ABA 12 μM, D (81% r.h.)",15.4%
same,Fatty acid composition of TAG (%) 18:2^b,"[3]; ABA 12 μM, H",13.2%
same,Fatty acid composition of TAG (%) 18:2^b,"[3]; ABA 16 μM, D (81% r.h.)",15.4%
same,Fatty acid composition of TAG (%) 18:2^b,"[3]; ABA 16 μM, H",13.5%
same,Fatty acid composition of TAG (%) 18:2^b,"[3]; ABA 24 μM, D (81% r.h.)",15%
same,Fatty acid composition of TAG (%) 18:2^b,"[3]; ABA 24 μM, H",14.7%
same,Fatty acid composition of TAG (%) 18:2^b,"[3]; ABA 32 μM, D (81% r.h.)",14.9%
same,Fatty acid composition of TAG (%) 18:2^b,"[3]; ABA 32 μM, H",14.6%
same,"Fatty acid composition of TAG (%) ΣC-20, 22^c","[3]; ABA 12 μM, D (81% r.h.)",1.4%
same,"Fatty acid composition of TAG (%) ΣC-20, 22^c","[3]; ABA 12 μM, H",1.4%
same,"Fatty acid composition of TAG (%) ΣC-20, 22^c","[3]; ABA 16 μM, D (81% r.h.)",1.5%
same,"Fatty acid composition of TAG (%) ΣC-20, 22^c","[3]; ABA 16 μM, H",1%
same,"Fatty acid composition of TAG (%) ΣC-20, 22^c","[3]; ABA 24 μM, D (81% r.h.)",1.5%
same,"Fatty acid composition of TAG (%) ΣC-20, 22^c","[3]; ABA 24 μM, H",1.2%
same,"Fatty acid composition of TAG (%) ΣC-20, 22^c","[3]; ABA 32 μM, D (81% r.h.)",2.5%
same,"Fatty acid composition of TAG (%) ΣC-20, 22^c","[3]; ABA 32 μM, H",1.6%
